≈ marks a conversion by molar mass, not a printed value.
Legend:
Assay type in all cases: cell-based
[1] = tested on: S. aureus MP-12; assay: microbe, parasite or virus in culture; conditions: Staphylococcus aureus, MP12, read-out: MIC S. aureus MP-12
[2] = tested on: E. coli MP-4; assay: MIC determination by CLSI broth dilution, E. coli MP-4; conditions: Escherichia coli, MP4, CLSI broth dilution; strain MP-4
[3] = tested on: K. pneumoniae MP-546; assay: MIC determination by CLSI broth dilution, K. pneumoniae MP-546; conditions: Klebsiella pneumoniae, MP546, CLSI broth dilution; strain MP-546
[4] = tested on: P. aeruginosa MP-3; assay: MIC determination by CLSI broth dilution, P. aeruginosa MP-3; conditions: Pseudomonas aeruginosa, MP3, strain MP-3
[5] = tested on: A. baumannii MP-15; assay: MIC determination by CLSI broth dilution, A. baumannii MP-15; conditions: Acinetobacter baumannii, MP15, strain MP-15, read-out: MIC A. baumanii MP-15

| SMILES | MIC [1] | MIC [2] | MIC [3] | MIC [4] | MIC [5] |
| --- | --- | --- | --- | --- | --- |
| CO[C@]1(C)C[C@@H](C)CN(C)[C@@H](CN(C)C(=O)CN(C)C)COC(=O)C(C)(C)C(=O)[C@H](C)[C@H]1O[C@@H]1O[C@H](C)C[C@H](N(C)C)[C@H]1O [Compound 13, 2-(dimethylamino)-N-(((3S,6R,8R,9R,10R)-9-(((2S,3R,4S,6R)-4-(dimethylamino)-3-hydroxy-6-methyltetrahydro-2H-pyran-2-yl)oxy)-8-methoxy-4,6,8,10,12,12-hexamethyl-11,13-dioxo-1-oxa-4-azacyclotridecan-3-yl)methyl)-N-methylacetamide] | > 32 µg/mL | 4 to 32 µg/mL (≈ 6.36 to 50.9 µM) | 4 to 32 µg/mL (≈ 6.36 to 50.9 µM) | > 32 µg/mL | > 32 µg/mL |
| C=C[C@@H]1COC(=O)C(C)(C)C(=O)[C@H](C)[C@@H](O[C@@H]2O[C@H](C)C[C@H](N(C)C)[C@H]2O)[C@](C)(OC)C[C@@H](C)CN1C [Compound 14, (3R,6R,8R,9R,10R)-9-(((2S,3R,4S,6R)-4-(Dimethylamino)-3-hydroxy-6-methyltetrahydro-2H-pyran-2-yl)oxy)-8-methoxy-4,6,8,10,12,12-hexamethyl-3-vinyl-1-oxa-4-azacyclotridecane-11,13-dione] | > 32 µg/mL | 4 to 32 µg/mL (≈ 7.59 to 60.8 µM) | 4 to 32 µg/mL (≈ 7.59 to 60.8 µM) | > 32 µg/mL | > 32 µg/mL |
| CNC[C@H]1COC(=O)C(C)(C)C(=O)[C@H](C)[C@@H](O[C@@H]2O[C@H](C)C[C@H](N(C)C)[C@H]2O)[C@](C)(OC)C[C@@H](C)CN1 [Compound 15, (3S,6R,8R,9R,10R)-9-(((2S,3R,4S,6R)-4-(Dimethylamino)-3-hydroxy-6-methyltetrahydro-2H-pyran-2-yl)oxy)-8-methoxy-6,8,10,12,12-pentamethyl-3-((methylamino)methyl)-1-oxa-4-azacyclotridecane-11,13-dione] | > 32 µg/mL | 4 to 32 µg/mL (≈ 7.55 to 60.4 µM) | > 32 µg/mL | > 32 µg/mL | > 32 µg/mL |
| CO[C@]1(C)C[C@@H](C)CN(C)[C@@H](CCCNC(C)C)COC(=O)C(C)(C)C(=O)[C@H](C)[C@H]1O[C@@H]1O[C@H](C)C[C@H](N(C)C)[C@H]1O [Compound 16, (3S,6R,8R,9R,10R)-9-(((2S,3R,4S,6R)-4-(dimethylamino)-3-hydroxy-6-methyltetrahydro-2H-pyran-2-yl)oxy)-3-(3-(isopropylamino)propyl)-8-methoxy-4,6,8,10,12,12-hexamethyl-1-oxa-4-azacyclotridecane-11,13-dione] | 4 to 32 µg/mL (≈ 6.67 to 53.3 µM) | < 4 µg/mL | 4 to 32 µg/mL (≈ 6.67 to 53.3 µM) | > 32 µg/mL | > 32 µg/mL |
| CO[C@]1(C)C[C@@H](C)CN[C@@H](CN(C)C)COC(=O)C(C)(C)C(=O)[C@H](C)[C@H]1O[C@@H]1O[C@H](C)C[C@H](N(C)C)[C@H]1O [Compound 17, (3S,6R,8R,9R,10R)-9-(((2S,3R,4S,6R)-4-(dimethylamino)-3-hydroxy-6-methyltetrahydro-2H-pyran-2-yl)oxy)-3-((dimethylamino)methyl)-8-methoxy-6,8,10,12,12-pentamethyl-1-oxa-4-azacyclotridecane-11,13-dione] | > 32 µg/mL | > 32 µg/mL | > 32 µg/mL | > 32 µg/mL | > 32 µg/mL |
| CCN(CC)CCC[C@H]1COC(=O)C(C)(C)C(=O)[C@H](C)[C@@H](O[C@@H]2O[C@H](C)C[C@H](N(C)C)[C@H]2O)[C@](C)(OC)C[C@@H](C)CN1C [Compound 19, (3S,6R,8R,9R,10R)-3-(3-(diethylamino)propyl)-9-(((2S,3R,4S,6R)-4-(dimethylamino)-3-hydroxy-6-methyltetrahydro-2H-pyran-2-yl)oxy)-8-methoxy-4,6,8,10,12,12-hexamethyl-1-oxa-4-azacyclotridecane-11,13-dione] | 4 to 32 µg/mL (≈ 6.52 to 52.1 µM) | < 4 µg/mL | < 4 µg/mL | > 32 µg/mL | > 32 µg/mL |
| CCN(C)CCC[C@H]1COC(=O)C(C)(C)C(=O)[C@H](C)[C@@H](O[C@@H]2O[C@H](C)C[C@H](N(C)C)[C@H]2O)[C@](C)(OC)C[C@@H](C)CN1C [Compound 20, (3S,6R,8R,9R,10R)-9-(((2S,3R,4S,6R)-4-(dimethylamino)-3-hydroxy-6-methyltetrahydro-2H-pyran-2-yl)oxy)-3-(3-(ethyl(methyl)amino)propyl)-8-methoxy-4,6,8,10,12,12-hexamethyl-1-oxa-4-azacyclotridecane-11,13-dione] | 4 to 32 µg/mL (≈ 6.67 to 53.3 µM) | < 4 µg/mL | < 4 µg/mL | > 32 µg/mL | > 32 µg/mL |
| CCC(O)C(C)CN1CCC(C[C@@H]2COC(=O)C(C)(C)C(=O)[C@H](C)[C@@H](O[C@@H]3O[C@H](C)C[C@H](N(C)C)[C@H]3O)[C@](C)(OC)C[C@@H](C)CN2C)CC1 (stereo partly shown) [Compound 35] | 4 to 32 µg/mL (≈ 5.73 to 45.8 µM) | < 4 µg/mL | < 4 µg/mL | > 32 µg/mL | > 32 µg/mL |
| CO[C@]1(C)C[C@@H](C)CN(C)[C@H](CC2CCN(CC(C)(C)C)CC2)C(C)(C)OC(=O)C(C)(C)C(=O)[C@H](C)[C@H]1O[C@@H]1O[C@H](C)C[C@H](N(C)C)[C@H]1O [Compound 36] | 4 to 32 µg/mL (≈ 5.75 to 46 µM) | < 4 µg/mL | 4 to 32 µg/mL (≈ 5.75 to 46 µM) | > 32 µg/mL | 4 to 32 µg/mL (≈ 5.75 to 46 µM) |
| CO[C@]1(C)C[C@@H](C)CN(C)[C@@H](CC2CCN(CC(C)(C)C)CC2)C(C)(C)OC(=O)C(C)(C)C(=O)[C@H](C)[C@H]1O[C@@H]1O[C@H](C)C[C@H](N(C)C)[C@H]1O [Compound 37] | > 32 µg/mL | 4 to 32 µg/mL (≈ 5.75 to 46 µM) | > 32 µg/mL | > 32 µg/mL | > 32 µg/mL |
| CCCN1CCC(C[C@@H]2[C@@H](C)OC(=O)C(C)(C)C(=O)[C@H](C)[C@@H](O[C@@H]3O[C@H](C)C[C@H](N(C)C)[C@H]3O)[C@](C)(OC)C[C@@H](C)CN2C)CC1 [Compound 38] | > 32 µg/mL | < 4 µg/mL | < 4 µg/mL | > 32 µg/mL | > 32 µg/mL |
| CO[C@]1(C)C[C@@H](C)CN(C)[C@H](CC2CCN(CC(C)(C)C)CC2)[C@@H](C)OC(=O)C(C)(C)C(=O)[C@H](C)[C@H]1O[C@@H]1O[C@H](C)C[C@H](N(C)C)[C@H]1O [Compound 39] | > 32 µg/mL | < 4 µg/mL | 4 to 32 µg/mL (≈ 5.87 to 46.9 µM) | > 32 µg/mL | > 32 µg/mL |
| CO[C@]1(C)C[C@@H](C)CN(C)[C@H](CC2CCN(CC[C@@H](C)CCC=C(C)C)CC2)[C@@H](C)OC(=O)C(C)(C)C(=O)[C@H](C)[C@H]1O[C@@H]1O[C@H](C)C[C@H](N(C)C)[C@H]1O [Compound 40] | 4 to 32 µg/mL (≈ 5.33 to 42.7 µM) | < 4 µg/mL | 4 to 32 µg/mL (≈ 5.33 to 42.7 µM) | > 32 µg/mL | 4 to 32 µg/mL (≈ 5.33 to 42.7 µM) |
| CCCN1CCC(C[C@H]2COC(=O)C(C)(C)C(=O)[C@H](C)[C@@H](O[C@@H]3O[C@H](C)C[C@H](N(C)C)[C@H]3O)[C@](C)(OC)C[C@@H](C)CN2C)CC1 [Compound 41] | > 32 µg/mL | 4 to 32 µg/mL (≈ 6.25 to 50 µM) | 4 to 32 µg/mL (≈ 6.25 to 50 µM) | > 32 µg/mL | > 32 µg/mL |
| CCCN1CCC(C[C@@H]2COC(=O)C(C)(C)C(=O)[C@H](C)[C@@H](O[C@@H]3O[C@H](C)C[C@H](N(C)C)[C@H]3O)[C@](C)(OC)C[C@@H](C)CN2C)CC1 [Compound 42] | 4 to 32 µg/mL (≈ 6.25 to 50 µM) | < 4 µg/mL | < 4 µg/mL | > 32 µg/mL | > 32 µg/mL |
| CO[C@]1(C)C[C@@H](C)CN(C)[C@@H](CC2CCN(C(=O)C3CC3)CC2)COC(=O)C(C)(C)C(=O)[C@H](C)[C@H]1O[C@@H]1O[C@H](C)C[C@H](N(C)C)[C@H]1O [Compound 44] | 4 to 32 µg/mL (≈ 6.01 to 48.1 µM) | > 32 µg/mL | > 32 µg/mL | > 32 µg/mL | > 32 µg/mL |
| CO[C@]1(C)C[C@@H](C)CN(C)[C@H](CC2CCN(C(=O)C3CC3)CC2)COC(=O)C(C)(C)C(=O)[C@H](C)[C@H]1O[C@@H]1O[C@H](C)C[C@H](N(C)C)[C@H]1O [Compound 45] | 4 to 32 µg/mL (≈ 6.01 to 48.1 µM) | 4 to 32 µg/mL (≈ 6.01 to 48.1 µM) | 4 to 32 µg/mL (≈ 6.01 to 48.1 µM) | > 32 µg/mL | > 32 µg/mL |
| CCCN1CCC(C[C@H]2N(C)C[C@H](C)C[C@@](C)(OC)[C@H](O[C@@H]3O[C@H](C)C[C@H](N(C)C)[C@H]3O)[C@@H](C)C(=O)C(C)(C)C(=O)OC2(C)C)CC1 [Compound 46] | 4 to 32 µg/mL (≈ 5.99 to 47.9 µM) | < 4 µg/mL | < 4 µg/mL | > 32 µg/mL | > 32 µg/mL |
| CO[C@]1(C)C[C@@H](C)CN(C)[C@H](CC2CCN(C(C)C)CC2)C(C)(C)OC(=O)C(C)(C)C(=O)[C@H](C)[C@H]1O[C@@H]1O[C@H](C)C[C@H](N(C)C)[C@H]1O [Compound 47] | 4 to 32 µg/mL (≈ 5.99 to 47.9 µM) | < 4 µg/mL | 4 to 32 µg/mL (≈ 5.99 to 47.9 µM) | > 32 µg/mL | > 32 µg/mL |
| CCCN1CCC(C[C@@H]2N(C)C[C@H](C)C[C@@](C)(OC)[C@H](O[C@@H]3O[C@H](C)C[C@H](N(C)C)[C@H]3O)[C@@H](C)C(=O)C(C)(C)C(=O)OC2(C)C)CC1 [Compound 48] | > 32 µg/mL | < 4 µg/mL | 4 to 32 µg/mL (≈ 5.99 to 47.9 µM) | > 32 µg/mL | > 32 µg/mL |
| CO[C@]1(C)C[C@@H](C)CN(C)[C@H](CC2CCN(C)CC2)[C@@H](C)OC(=O)C(C)(C)C(=O)[C@H](C)[C@H]1O[C@@H]1O[C@H](C)C[C@H](N(C)C)[C@H]1O [Compound 49] | > 32 µg/mL | < 4 µg/mL | 4 to 32 µg/mL (≈ 6.39 to 51.1 µM) | > 32 µg/mL | > 32 µg/mL |
| CO[C@]1(C)C[C@@H](C)CN(C)[C@H](CC2CCN(CC(C)(C)C)CC2)COC(=O)C(C)(C)C(=O)[C@H](C)[C@H]1O[C@@H]1O[C@H](C)C[C@H](N(C)C)[C@H]1O [Compound 54] | 4 to 32 µg/mL (≈ 5.99 to 47.9 µM) | < 4 µg/mL | < 4 µg/mL | > 32 µg/mL | > 32 µg/mL |
| CO[C@]1(C)C[C@@H](C)CN(C)[C@@H](CC2CCN(CC(C)(C)C)CC2)COC(=O)C(C)(C)C(=O)[C@H](C)[C@H]1O[C@@H]1O[C@H](C)C[C@H](N(C)C)[C@H]1O [Compound 66] | > 32 µg/mL | 4 to 32 µg/mL (≈ 5.99 to 47.9 µM) | 4 to 32 µg/mL (≈ 5.99 to 47.9 µM) | > 32 µg/mL | > 32 µg/mL |
